Measured values published in patent publication US8178690B2, “Compounds and methods for inhibiting the interaction of BCL proteins with binding partners” (Infinity Pharmaceuticals, Inc., priority 2006, dated 2012).

Tests used:
Bcl-2 = Bcl-2 (Homo sapiens, UniProt P10415); assay: Bcl-2 binding affinity analysis (fluorescence polarization binding assay); settings: read-out: BcI2 (Ki, Bcl-2 binding affinity)
Excerpt: (§1) Bcl-2 and Bcl-xL binding may be determined using a variety of known methods. One such assay is a sensitive and quantitative in vitro binding assay using fluorescence polarization (FP) described by Wang, J.-L.; Zhang, Z-J.; Choksi, S.; Sjam. S.; Lu, Z.; Croce, C. M.; Alnemri, E. S.; Komgold, R.; Huang, Z. Cell permeable Bcl-2 binding peptides: a chemical approach to apoptosis induction in tumor cells. Cancer Res. 2000, 60, 1498-1502).
(§2) Bcl-2 and Bcl-xL binding affinity analysis data is presented below for various compounds of the invention.

Bcl-xL = Bcl-xL (Homo sapiens, UniProt Q07817); assay: Bcl-xL binding affinity analysis (fluorescence polarization binding assay); settings: read-out: BcI-XI (Ki, Bcl-xL binding affinity)
Sequence of Bcl-xL (Q07817 whole entry): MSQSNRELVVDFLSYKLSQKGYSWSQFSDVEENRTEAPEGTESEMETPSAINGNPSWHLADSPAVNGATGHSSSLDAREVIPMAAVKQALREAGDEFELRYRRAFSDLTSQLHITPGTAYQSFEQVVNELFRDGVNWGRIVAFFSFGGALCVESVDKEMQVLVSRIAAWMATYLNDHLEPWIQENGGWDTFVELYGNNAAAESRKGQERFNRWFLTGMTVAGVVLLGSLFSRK
Excerpt: as §1, §2

Sequence of Bcl-2 (P10415 whole entry): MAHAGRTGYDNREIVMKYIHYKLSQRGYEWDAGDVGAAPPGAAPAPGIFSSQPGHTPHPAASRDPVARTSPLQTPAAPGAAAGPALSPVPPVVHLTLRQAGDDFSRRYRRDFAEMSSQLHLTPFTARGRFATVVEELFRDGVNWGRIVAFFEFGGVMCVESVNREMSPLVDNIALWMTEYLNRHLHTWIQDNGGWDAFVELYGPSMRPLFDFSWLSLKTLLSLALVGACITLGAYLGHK

| Ki (Bcl-2) [nM] | Ki (Bcl-xL) [nM] | SMILES |
| --- | --- | --- |
| < 1 | < 1000 | CCOc1c(CN2O[C@@H](CO)[C@@H]([C@H](C)O)[C@H]2C(=O)N[C@H]2C[C@H]3C[C@@H]([C@@H]2C)C3(C)C)cccc1-c1cc(C(=O)N[C@@H](Cc2ccccc2)CN(C)C)cc(N(C)C)c1 [Compound 15] |
| 1 to 5 | 1000 to 5000 | COc1c(CN2O[C@@H](CO)[C@@H]([C@H](C)O)[C@H]2C(=O)N[C@H]2C[C@H]3C[C@@H]([C@@H]2C)C3(C)C)cccc1-c1cc(C(=O)N[C@@H](CC(C)C)CN(C)C)cc(N2CCCCC2)c1 [Compound 268] |
| > 9 | 5000 to 10000 | CNC(=O)c1cc(-c2cccc(CN3O[C@@H](CNCc4ccccc4)[C@@H]([C@H](C)O)[C@H]3C(=O)N[C@H]3C[C@H]4C[C@@H]([C@@H]3C)C4(C)C)c2OC)cc(N(C)C)c1 [Compound 85] |
| < 1 | 1000 to 5000 | COc1c(-c2cc(C(=O)N[C@@H](Cc3ccccc3)CN(C)C)cc(N(C)C)c2)ccc(Cl)c1CN1O[C@@H](CO)[C@@H]([C@H](C)O)[C@H]1C(=O)N[C@H]1C[C@H]2C[C@@H]([C@@H]1C)C2(C)C [Compound 274] |
| 1 to 5 | > 10000 | COc1c(CN2O[C@@H](CN)[C@@H]([C@H](C)O)[C@H]2C(=O)N[C@H]2C[C@H]3C[C@@H]([C@@H]2C)C3(C)C)cccc1-c1cc(C(=O)N[C@@H](Cc2ccccc2)CN(C)C)cc(N(C)C)c1 [Compound 54] |
| < 1 | < 1000 | COc1c(CN2O[C@@H](CO)[C@@H]([C@H](C)O)[C@H]2C(=O)N[C@H]2C[C@H]3C[C@@H]([C@@H]2C)C3(C)C)cccc1-c1cc2c(c(C(=O)N[C@H](CN(C)C)CC(C)(C)C)c1)OC(C)(C)C2 [Compound 196] |
| < 1 | 5000 to 10000 | COc1c(CN2O[C@@H](CN)[C@@H]([C@H](C)O)[C@H]2C(=O)N[C@H]2C[C@H]3C[C@@H]([C@@H]2C)C3(C)C)cccc1-c1cc(C(=O)NCCN(C)C)cc(N(C)C)c1 [Compound 63] |
| > 9 | > 10000 | CNC(=O)c1cc(-c2cccc(CN3O[C@@H](CN)[C@@H]([C@H](C)OC(=O)NCCc4ccccc4)[C@H]3C(=O)N[C@H]3C[C@H]4C[C@@H]([C@@H]3C)C4(C)C)c2OC)cc(N(C)C)c1 [Compound 91] |
| < 1 | < 1000 | COc1c(CN2O[C@@H](CO)[C@@H]([C@H](C)O)[C@H]2C(=O)N[C@H]2C[C@H]3C[C@@H]([C@@H]2C)C3(C)C)cccc1-c1cc(C(=O)N[C@@H](CC(C)C)CN(C)C)cc(N(C)CC(C)C)c1 [Compound 271] |
| < 1 | < 1000 | COc1c(CN2O[C@@H](CN)[C@@H]([C@H](C)O)[C@H]2C(=O)N[C@H]2C[C@H]3C[C@@H]([C@@H]2C)C3(C)C)cccc1-c1cc(C(=O)N[C@H](CC(C)C)CN(C)C)cc(N(C)C)c1 [Compound 68] |
| < 1 | < 1000 | C[C@@H]1[C@@H](NC(=O)[C@@H]2[C@H]([C@H](C)O)[C@H](CO)ON2Cc2cccc(-c3cc(C(=O)N[C@@H](Cc4ccccc4)CN(C)C)cc(N(C)C)c3)c2OCC2CC2)C[C@H]2C[C@@H]1C2(C)C [Compound 26] |
| 5 to 9 | 1000 to 5000 | COc1c(CN2O[C@@H](CO)[C@@H]([C@H](C)O)[C@H]2C(=O)N[C@H]2C[C@H]3C[C@@H]([C@@H]2C)C3(C)C)cccc1-c1cc(NC(C)=O)cc(C(=O)N[C@@H](CC(C)C)CN(C)C)c1 [Compound 262] |
| < 1 | < 1000 | COc1c(CN2O[C@@H](CO)[C@@H]([C@H](C)O)[C@H]2C(=O)N[C@H]2C[C@H]3C[C@@H]([C@@H]2C)C3(C)C)cccc1-c1cc(C(=O)N[C@H](Cc2ccccc2)CN(C)C)cc(N(C)C)c1 [Compound 113] |
| > 9 | > 10000 | CNC(=O)c1cc(-c2cccc(CN3O[C@@H](CNCc4cccc(C(=O)O)c4)[C@@H]([C@H](C)O)[C@H]3C(=O)N[C@H]3C[C@H]4C[C@@H]([C@@H]3C)C4(C)C)c2OC)cc(N(C)C)c1 [Compound 84] |
